Patent EP1379634B1 (THE UNIVERSITY OF GEORGIA RESEARCH FOUNDATION, INC., priority 2001, dated 2002)
Residues, ends and D or L forms follow the SMILES beside them. *: point of attachment. AFC = O=c1cc(C(F)(F)F)c2ccc(N*)cc2o1; Cbz = O=C(OCc1ccccc1)*; CH2F = FC*

Legend:
Taenia solium crude mix = test: Substrate cleavage screen of AFC-linked peptides (Step II), crude mix; format: biochemical; settings: 0.4 M Citrate, pH 4.9, 18 h, 37 °C
Description: (§1) In this step, the most efficacious substrate for detection of the cysteine protease (high Kcat substrate) was determined in vitro along with those substrates which were not well cleaved (low kcat substrates). From this point forward, the following conditions refer to all assays: "assay buffer" refers to 0.4 M Citrate, pH 4.9 (the pH optima of the protease). Incubation time was 18 hours at 37°C. These conditions were determined by our preliminary data to be best for kinetic evaluation of the protease. […] The experiments were conducted in 6X50 […] Borosilicate mini-culture tubes (Fisher Scientific), and a fluorometer (Turner) was employed for detection of AFC cleavage.
In order to prepare the Taenia solium "crude mix", dry frozen Taenia solium cysts were obtained from 6-12 month old cysticercotic pigs from villages in an endemic area of porcine cysticercosis in Mexico. Metacestodes were carefully dissected from the parasitized tissues, washed three times with PBS, and lyophilized. Parasite extracts were prepared by suspending 0.1 grams of dry frozen cysts in 10 ml of extraction buffer (0.4 M citrate, pH 4.9) at room temperature. The cysts were vortexed for three five-minute intervals with intermittent incubations (5 min) at 4 °C. Particulate material was removed by centrifugation (20,000 x g, 120 min) and the resulting soluble fraction filtered ([…]). In assay buffers, the detectable amount of the crude mix, as described above, was employed and incubated with the target substrates.
(§2) Vmax for the cleavage of substrates by the purified target protease and Vmax for substrates cleaved by the crude mix protease were each calculated using conventional kinetic modeling calculations already described in the art.

T. solium (cysteine) = test: Selectivity test (Steps VI and IX), T. solium cysteine protease; format: biochemical, Taenia solium; settings: inhibitor 3 X 10^-10 M
Description: (§3) In order to perform the assay, the vehicle (for Step VI) or inhibitor (for Step IX) were incubated with the appropriate substrate in the correct assay buffer and allowed to equilibrate. Subsequently, the protease was added, and the assay was allowed to incubate for an appropriate time. The concentrations used in this experiment were as follows: Vehicle was set up at 4 X 10^-5 M in final assay buffer; Inhibitor was set up at 3 X 10^-10 M in the final assay buffer. Preferably the dosages employed should be the minimal amount of vehicle or inhibitor necessary to induce inhibition. […] Substrates were set up based upon the preferred substrate for cleavage of the particular enzyme.
(§4) Positive controls were set up similarly as described for test controls, except that a solvent blank was added in substitution for the inhibitor or vehicle (in a volume equal to the volume of inhibitor or vehicle addition). All of the inhibitors and vehicles could be dissolved in dimethylsulfoxide (DMSO), and therefore, this was the solvent of choice. Negative controls were set up by adding the inhibitor or vehicle and the preferred substrates in a tube without the protease. All potential non-proteolytic liberation of AFC was therefore controlled for in this tube.
(§5) All controls were set up in triplicate, and experiments were repeated a minimum of five times.
(§6) Percent inhibition was calculated as: %Inhibition = ((AFC positive for "SI"−AFC negative for "SI")−(AFC test−AFC negative for "SI"))/(AFC positive for "SI"−AFC negative for "SI") × 100 [formula]
(§7) In this preliminary test, we employed the following human-derived enzymes (with indicated mechanistic class in parentheses): Cathepsin B (cysteine), Cathepsin L (cysteine), Cathepsin H (cysteine), Cathepsin D (aspartic), Trypsin (serine), the purified Taenia solium cysteine protease, and the Taenia solium crude mix. Cathepsin B was prepared in an assay buffer of 10 mM L-cysteine in 0.4 M Citrate buffer, pH 6.1, using Z-ARR-AFC as the cleavage substrate. Cathepsin L was prepared in an assay buffer of 10 mM L-cysteine in 0.4 M Citrate buffer, pH 5.5, using Z-FR-AFC as the cleavage substrate. Cathepsin H was prepared in an assay buffer of 10 mM L-cysteine in 0.15 M PBS buffer, pH 6.8, using L-R-AFC as the cleavage substrate. Cathepsin D was prepared in an assay buffer of 0.15 M PBS, pH 7.1, using Z-RGFFP-AFC as the cleavage substrate. Trypsin was prepared in an assay buffer of 0.15 M PBS, pH 8.0, supplemented with 100 mM CaCl2 and with Z-R-AFC as the cleavage substrate. Enzyme was incubated so that it was at least 50 times less than the concentration of substrate in order to insure saturating conditions.

BALB/c mice = test: Observation of side effects in treated mice; format: in vivo
[1] = system: normal BALB/c mouse splenocytes; test: Splenocyte proliferation (3H-thymidine incorporation) with or without Con-A; format: cell-based
Taenia crassiceps cysts = test: Short-term protection of BALB/c mice from cysticercosis infection; format: in vivo
Cathepsin L = Cathepsin L (Homo sapiens, UniProt P07711); test: Selectivity test (Steps VI and IX), Cathepsin L; format: biochemical; settings: inhibitor 3 X 10^-10 M; pH 5.5, substrate Z-FR-AFC; 0.0003 µM
Sequence of Cathepsin L (P07711 114-333): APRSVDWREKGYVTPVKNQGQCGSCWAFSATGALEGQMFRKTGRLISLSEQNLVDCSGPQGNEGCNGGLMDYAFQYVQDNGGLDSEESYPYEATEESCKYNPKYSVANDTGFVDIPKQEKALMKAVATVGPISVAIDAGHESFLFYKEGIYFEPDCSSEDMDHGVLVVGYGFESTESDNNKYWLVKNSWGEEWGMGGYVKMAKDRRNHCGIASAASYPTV
Description: as §3, §4, §5, §6, §7

[2] = system: purified Taenia solium cysteine protease; test: Protease inactivator inhibition assay against cocktail, EC100 and Ki (Step VII); format: biochemical; settings: for % Inhibition of T. solium CP in vitro: concentration not stated in Table 4; for ranking by EC100: dilution study, nanomolar levels
Description: Once the protease inactivators were synthesized in the organic laboratory, they were to be tested for the lowest efficacious concentrations at which they induced 100% inhibition of the target protease (EC100). The top percent cocktail that was employed in the final vehicle selection step of Step III was employed as the source of competition for the inhibitors. In this case, this was the 7.9% cocktail that was comprised of Z-FR-AFC, Z-FAR-AFC, Z-AP-AFC, Z-AAK-AFC, and Z-VLR-AFC. The final result would be a ranking of transition state candidate protease inactivators with a high ranking directly correlating to a low EC100 value. The following steps describe the assay: • Step A: Initial Screening. To set up the test control, each protease inactivator was first incubated with the 5% cocktail (which provided the final differentiation of vehicles in Step III). To begin with, the protease inactivator was incubated at a concentration of 3 X 10^-9M in 500 ul of assay buffer (0.2 M Citrate, pH 4.9, supplemented with 10mM L-cysteine). This concentration was determined by a series of inhibitor dilutions to be the best inhibitor concentration at which a differentiation in inhibitor potential could be noted. Next, a concentration equal to 4 X 10^-5M for each of the individual cocktail components, was added to the mix. The components were allowed to equilibrate for a period of 30 minutes. Finally, active purified enzyme was added to the tubes at a concentration which was always at least 50 times less than the concentration of the lowest concentration in the mix (so as to provide saturating conditions.) This concentration varied from purification to purification, and the amount that was added depended upon the yield and specific activity of the purified protease. Positive controls were set up similarly as described for test controls, except that solvent was added in substitution for the protease inactivator (in a volume equal to the […] volume addition). All of the protease inactivators could be dissolved in dimethylsulfoxide (DMSO), and therefore, this was the solvent of choice. Negative controls were set up by adding the protease inactivator and the cocktail substrates in a tube, without the protease. All potential non-proteolytic induced liberation of AFC was therefore controlled for in this tube. All controls were set up in triplicate, and experiments repeated a minimum of five times. The assays were incubated at 37°C, overnight. Percent inhibition was calculated as: %Inhibition = ((AFC positive for "SI"−AFC negative for "SI")−(AFC test−AFC negative for "SI"))/(AFC positive for "SI"−AFC negative for "SI") × 100 [formula] • Step B: Inhibitor Dilution Studies and formation of a ranked list of protease inactivators based upon EC100 values. […] Because of this, a dilution study was required in order to determine a viable ranking. Thus, the concentration of each of the protease inactivators was lowered with a dose response setup until the most efficacious concentration for 100% inhibition (EC100) could be determined. The inhibitors had to be diluted to nanomolar levels in order to establish a differentiable EC100 pattern. The final result of the assay was a ranked candidate list of protease inactivators. A lower EC100 was attributable to a higher ranking and vice-versa. • Step C: Determination of Inhibitor Ki and mode of inhibition, and re-ranking of EC100 list with inhibitor Ki. Ki of each of the top ranked protease inactivators, based upon low EC100 values, was assessed next for the top 5 EC100 inhibitors.
In order to determine Ki, all of the high Vmax cocktail substrates were employed for Ki determination (since Ki of the inhibitor for the enzyme is the same regardless of the substrate). To insure the highest accuracy, Ki was to be determined upon a minimum of at least three of the high Kcat substrates. Nonlinear fitting and the Dixon plot were both employed to determine Ki of the top ranked protease inactivators. […]

Trypsin = test: Selectivity test (Steps VI and IX), Trypsin; format: biochemical, human; settings: inhibitor 3 X 10^-10 M; pH 8.0, substrate Z-R-AFC; 0.0003 µM
Description: as §3, §4, §5, §6, §7

[3] = system: purified Taenia solium cysteine protease; test: Substrate cleavage screen of AFC-linked peptides (Step II), purified protease; format: biochemical; settings: 0.4 M Citrate, pH 4.9, 0.01 M cysteine, 18 h, 37 °C
Description: as §1
Since the full 8,420 amino acid possibilities for cleavage were not available, representative substrates were employed. […] In order to choose this subset, representative amino acids (i.e., selected from the categories of acidic, basic, nonpolar, uncharged) were chosen so as to create as many categories of motifs as feasible for the P3-P1 positions with a set of 67 small peptides (see lists at Fig. 4a and Fig. 4b). The target cysteine protease from Taenia solium was isolated using the purification methods described previously in the patent WO 00/63350.
Approximately 1 ug (or a proteolytically detectable amount) of the purified target cysteine protease was incubated individually, with 1 ug of each of the available substrates in 500 uL of assay buffer. During this setup, the substrate was pre-incubated in the assay buffer for a short period of time (20 minutes) in order to reach an equilibrated status before the addition of the protease. Cleavage assessments were based upon the property of the protease to cleave synthetic peptide substrates linked at the C-terminus to 7-Amino-4-Trifluoromethyl Coumarin (AFC) as previously described. AFC linked tripeptides, dipeptides, and monopeptides, (with a variety of permutations at P3-P1) were available from Enzyme Systems Products (Livermore, CA), and were used as the source of the subset. Following incubation of enzyme preparations overnight (18 h, 37 °C) with peptide in assay buffer (Citrate, pH 4.9, supplemented with 0.01 M cysteine), free AFC concentrations were measured fluorometrically (excitation 405 nm, emission 505 nm). The proteolytic cleavage released the AFC group, which was measurable as a free molecule by a standard fluorometer and converted into molar quantities, based upon a previously established standard curve. The simplicity of AFC detection by the fluorometer was a key factor which expedited and simplified the procedures.
In the assay, 1 ug of the purified Taenia cysteine protease was added to a saturating amount of Z-Phe-Arg-AFC (4X10^-5 M) in assay buffer. The experiment was conducted in triplicate and repeated at least 5 times until we were certain that variability in AFC cleavage was not statistically significant.
as §2

## C[C@H](NC(=O)[C@H](Cc1ccccc1)NC(=O)OCc1ccccc1)C(=O)N[C@@H](CCCNC(=N)N)C(=O)Nc1ccc2c(C(F)(F)F)cc(=O)oc2c1 [Z-FAR-AFC] (Cbz-Phe-Ala-Arg-{AFC})
Taenia solium crude mix
  cleavage of AFC substrate (Vmax): most cleaved

## C[C@H](NC(=O)OCc1ccccc1)C(=O)N[C@@H](C)C(=O)N[C@@H](CCCCN)C(=O)Nc1ccc2c(C(F)(F)F)cc(=O)oc2c1 [Z-AAK-AFC] (Cbz-Ala-Ala-Lys-{AFC})
Taenia solium crude mix
  cleavage of AFC substrate (Vmax): most cleaved

## CC(C)C[C@H](NC(=O)[C@H](CC(C)C)NC(=O)[C@H](CC(C)C)NC(=O)OCc1ccccc1)C(=O)CF [Z-LLL-FMK, Z-Leu-Leu-Leu-fluoromethylketone] (Cbz-Leu-Leu-Leu-CH2F)
T. solium (cysteine)
  % inhibition: 98%
BALB/c mice; long or short-term period
  side effects in treated animals: only negligible side effects
BALB/c mice; long-term studies
  side effects in treated mice: no side effects
[1]; inhibitor alone
  proliferative response (3H-thymidine incorporation): do not induce a proliferative response
[1]; preliminary results
  toxicity to splenocytes in vitro: nontoxic
Taenia crassiceps cysts; inhibitor treatment began two weeks after infection
  % Therapeutic protection of BALB/c mice: 60%
Cathepsin L
  % inhibition: almost half of the inhibition of the Taenia solium cysteine protease
[2]
  % Inhibition of T. solium CP in vitro: 100%
  ranking by EC100: top inhibitors
Trypsin
  % inhibition: 0%

## Leu-Phe-Ketoamide-Pyridyl [K-Pyr, reference compound]
Taenia crassiceps cysts; pre-injected two days, 10 T. crassiceps cysts/mouse, dosed daily four weeks, cysts counted after one month
  % Prophylactic protection of BALB/c mice: 40%
[2]
  % Inhibition of T. solium CP in vitro: 80%

## CC(C)C[C@H](NC(=O)[C@@H](NC(=O)OCc1ccccc1)C(C)C)C(=O)N[C@@H](CCCNC(=N)N)C(=O)Nc1ccc2c(C(F)(F)F)cc(=O)oc2c1 [Z-VLR-AFC] (Cbz-Val-Leu-Arg-{AFC})
Taenia solium crude mix
  cleavage of AFC substrate (Vmax): most cleaved

## C[C@H](N)C(=O)N1CCC[C@H]1C(=O)Nc1ccc2c(C(F)(F)F)cc(=O)oc2c1 [AP-AFC] (H-Ala-Pro-{AFC})
Taenia solium crude mix
  cleavage of AFC substrate (Vmax): most cleaved

## CC(C)C[C@@H](/C=C/S(C)(=O)=O)NC(=O)[C@H](CC(C)C)NC(=O)[C@H](CC(C)C)NC(=O)OCc1ccccc1 [Z-LLL-VS, Z-Leu-Leu-Leu-vinylsulfone]
[2]
  ranking by EC100: top inhibitors

## N=C(N)NCCC[C@H](NC(=O)[C@H](Cc1ccccc1)NC(=O)OCc1ccccc1)C(=O)Nc1ccc2c(C(F)(F)F)cc(=O)oc2c1 [Z-FR-AFC, Z-Phe-Arg-AFC, reference compound] (Cbz-Phe-Arg-{AFC})
Taenia solium crude mix
  cleavage of AFC substrate (Vmax): most cleaved
[3]
  cleavage of AFC substrate (Vmax): cleaved
[3]; listed as Z-Phe-Arg-AFC
  cleavage of AFC substrate (Vmax): highest Vmax
